Reference: patent US20220023302A1, “PDE9 INHIBITORS FOR TREATING SICKLE CELL DISEASE” (Imara Inc., priority 2019, published 2022)
Converted amounts (≈) assume the structure as drawn. “Also recorded” adds a separate entry of the source.

Experiments:
[1] = test system: Erythroid cell lines (K562, UT-7); assay: In vitro studies in erythroid cell lines vs. HU; format: cell-based
Source text: The effects of Compound 1 is compared with HU in in vitro studies in erythroid cell lines (K562 and UT-7).

[2] = test system: SCD patient neutrophils; assay: In vitro adhesion assay mimicking blood flow (microchannels lined with activated HMEC-1); format: cell-based, human
Source text: (§1) This appears to be accompanied by a Compound 1-mediated reduction in disease specific cell activation including 67% lower levels of myeloid derived myeloperoxidase (MPO) and 26% lower levels of neutrophil derived arginase in the lung (FIG. 1). […] This was quantified by real time monitoring of the green florescent patches in the microchannel, as neutrophils are labeled by a specific Alexa Fluor® 488-conjugated antibody before the perfusion step. […] Under these conditions, adhesion was reduced an average of 54% (p=0.03) (FIG. 2). Mechanistically, not willing to be bound by any theory, Compound 1 may target the stationary adhesion step of neutrophils as it lowered expression levels of key neutrophil integrins including CD11a [reduced 23% (p=0.002)], CD11b [reduced 39% (ns)) and CD18 [reduced 47% (p=0.03)) (FIG. 3).

[3] = Stability of Compound 1 in solution as a function of pH; format: physicochemical
Source text: The pH of the solution affects the compound stability and solubility. […] In some embodiments, pharmaceutical composition has a pH from about 3.0 to about 7.0. In some embodiments, the pharmaceutical composition has a pH from about 3.0 to about 6.0, or from about 5.5 to about 6.5. In some embodiments, pH of the pharmaceutical composition is about 5.5, about 5.6, about 5.7, about 5.8, about 5.9, about 6.0, about 6.1, about 6.2, about 6.3, about 6.4, or about 6.5. In some embodiments, pH of the pharmaceutical composition is about 5.5. In some embodiments, pH of the pharmaceutical composition is about 6.0.
There is no obvious excipient that can mask its taste. Another major challenge was to optimize the excipients quantity. […] In some embodiments, a pharmaceutical composition of pH above 5.5 comprising Compound 1 is provided. […] Extensive formulation development and manufacturing process studies were carried out. Other challenges are the excipient compatibility and stability of the API in solution.

[4] = test system: Townes mice; assay: Myeloid and neutrophil inflammatory markers in the lungs of Townes mice; format: in vivo, mouse
Source text: as §1

[5] = test system: SCD patient derived cell lines; assay: Study in SCD patient derived cell lines; format: cell-based, human
[6] = Solubility in water; format: physicochemical
Procedure: Per taste testing results, bitterness could be detected for all these samples. […] At this level of solubility, masking the taste of Compound 1 in an oral solution is challenging. Even high level of sucralose was evaluated and taste of the oral solution remained bitter. […] Furthermore, strawberry flavor was chosen, because patients like its sweet taste and it has a good solubility in water. Orange juice or lime juice may be used to dilute the oral solution and to mask the bitter taste before administration.

[7] = test system: Townes mouse model; assay: Plasma sE-Sel in the Townes mouse model; format: in vivo; settings: Townes mice treated with Compound 1
Procedure: Endothelial E-selectin (E-Sel) slows leukocyte rolling, which is followed by stationary adhesion and transmigration of activated leukocytes. Plasma levels of sE-Sel, produced by the enzymatic cleavage of the extracellular domains of E-Sel, are increased in SCD patients and this may be mediated by its interaction with leukocytes. In the Townes mouse model, plasma sE-Sel is increased 144% ([…]) over levels seen in control mice ([…]).

[8] = test system: Townes SCD model; assay: 28 day Townes SCD model, Compound 1 vs. HU (RBC/WBC); format: in vivo, mouse
Procedure: In one study, Compound 1 and therapeutic doses of HU (25 mg/kg and 50 mg/kg) were tested side-by-side in the 28 day Townes SCD model (oral daily). […] MPO is a monocyte inflammatory marker. Plasma nitrate is improved nitrate levels. Lower levels of plasma nitrate may contribute to hemolysis in SCD patients.

[9] = Nonclinical data on concomitant administration of HU with Compound 1; format: in vivo
Procedure: Results from Population B are intended to provide information on Compound 1 when administered concomitantly with HU, both of which increase HbF levels through alternative biochemical pathways that increase intracellular cGMP. Because there are no clinical data to support administration of Compound 1 concomitantly with HU, patients in Population B initiate Compound 1 dosing at the low dose (30 mg or 50 mg) used in Population A and only escalate to the 100 mg dose if the 50 mg dose has been safe and tolerated for 4 weeks.

[10] = test system: SCD models; assay: Circulating levels of PMNs in SCD models; format: in vivo, murine
Source text: as §1, with “Recently several drugs targeting white cell binding to endothelial cells, have been advancing in clinical studies in patients. Compound 1 is able to increase expression of fetal hemoglobin in patient derived cells and murine models of SCD and reduce vessel occlusion in SCD murine models. In this Example, the ability of Compound 1 to reduce the adhesive properties of neutrophils from SCD patients and reduce sE-Selectin (sE-Sel) and markers of PMN activation in murine SCD models was studied. […] This appears” for “This appears”

[11] = Clinical safety and tolerability; format: in vivo, human
Procedure: In some embodiments, Compound 1, or a pharmaceutically acceptable salt, solvate, or hydrate thereof is administered to a patient, wherein Compound 1, or a pharmaceutically acceptable salt, solvate, or hydrate thereof, is administered once a day with food. […] The incidence and severity of the side effects, such as nausea, emesis and headache, can be reduced when Compound 1, or a pharmaceutically acceptable salt, solvate, or hydrate thereof, is taken with food.
Therefore, Population A is designed to explore the PD dose response in patients as well as the tolerability of the 200 mg dose level in sickle cell patients who have tolerated the 100 mg dose well.

[12] = test system: CD11a, CD11b and CD18 integrins on SCD patient neutrophils; assay: Integrin expression on SCD patient neutrophils; format: cell-based, human
Source text: as §1

[13] = test system: C57B1/6J; assay: In-vivo cognition: C57B1/6J
[14] = test system: In-vivo SCD: vaso occlusion; assay: In-vivo SCD: vaso occlusion (WBC)

Compound: C[C@@H]1CN(Cc2ncccn2)C[C@H]1c1cn2c(C3CCOCC3)ncc2c(=O)[nH]1 [Compound 1, 6-[(3S,4S)-4-methyl-1-(pyrimidin-2-ylmethyl)pyrrolidin-3-yl]-3-tetrahydropyran-4-yl-7H-imidazo[1,5-a]pyrazin-8-one]
- cGMP levels vs. HU [1]: increased cGMP levels compared with HU; also recorded: Increased cGMP levels vs. HU;
- induction of HbF (RNA, protein, etc.) [1]: induction of HbF (RNA, protein, etc.)
- reduction of neutrophil adhesion to activated HMEC-1 ([2]; 30 min incubation with 30 μM, average, p=0.03, FIG. 2): 54%
- adhesion of SCD patient neutrophils to endothelial cells ([2]; added to whole blood samples prior to perfusion): reduced adhesions significantly and in a dose dependent manner; also recorded: reduces adhesion
- stability at a lower pH [3]: unstable
- myeloid and neutrophil inflammatory markers in the lungs ([4]; Townes mice, FIG. 1 legend): reduces
- lower levels of myeloid derived myeloperoxidase (MPO) in the lung ([4]; lung, FIG. 1): 67%
- lower levels of neutrophil derived arginase in the lung ([4]; lung, FIG. 1): 26%
- F-cells % [5]: F-cells % increase
- HbF [5]: increases in HbF
- solubility [6]: ~1000 mg/mL (≈ 2530 mM)
- plasma sE-Sel levels ([7]; control mice 57, Townes mice 139): 92 ng/mL
- plasma sE-Sel elevation over control mice ([7]; untreated Townes 144%): 61%
- key measures of RBC pathology (sickled RBCs; unconjugated bilirubin; % HbF cells; LDH activity) vs. HU ([8]; 28 day, oral daily, Compound 1 30 mg/kg, HU 25 and 50 mg/kg, FIG. 4): outperforms HU in a statistically significant manner
- measures of WBC pathology vs. HU ([8]; 28 day, oral daily, Compound 1 30 mg/kg, HU 25 and 50 mg/kg, FIG. 5): outperforms HU in a statistically significant manner
- RBC/WBC parameters vs. HU ([8]; Townes): Statistically better results than HU
- increase of Compound 1 exposure by concomitant HU [9]: do not suggest
- circulating levels of PMNs [10]: reduced
- effect of food on adverse event profile (nausea, emesis, headache) ([11]; once a day with food): dramatically reduce the adverse event profile
- safety and tolerability ([11]; once daily doses of 30, 50, 100, and 200 mg, nonclinical and healthy volunteer clinical data): safe and well tolerated
- expression of CD11a, CD11b and CD18 integrins ([12]; FIG. 3 legend): reduces expression
- CD11b expression reduced ([12]; ns, FIG. 3): 39%
- CD11a expression reduced ([12]; p=0.002, FIG. 3): 23%
- CD18 expression reduced ([12]; p=0.03, FIG. 3): 47%
- CNS activity [13]: No CNS activity
- vaso occlusion (WBC) vs. HU [14]: Better results vs. HU; combo
